{"source": "patent US7288631B2", "about": "(Euroscreen, s.a., priority 1997, dated 2007)", "type_in_all_cases": "cell-based", "key": {"P2Y11 receptor [1]": {"molecular_target": "T1, P2Y11 receptor (Homo sapiens, UniProt Q96G91, DUP173-173)", "T1 construct": "expressed in transfected cells; host or cells: 1321N1 astrocytoma cells and CHO-K1 cells, G418-selected, pEFIN3 bicistronic vector", "T1 sequence (Q96G91 with tags, fused parts or gaps DUP173-173)": "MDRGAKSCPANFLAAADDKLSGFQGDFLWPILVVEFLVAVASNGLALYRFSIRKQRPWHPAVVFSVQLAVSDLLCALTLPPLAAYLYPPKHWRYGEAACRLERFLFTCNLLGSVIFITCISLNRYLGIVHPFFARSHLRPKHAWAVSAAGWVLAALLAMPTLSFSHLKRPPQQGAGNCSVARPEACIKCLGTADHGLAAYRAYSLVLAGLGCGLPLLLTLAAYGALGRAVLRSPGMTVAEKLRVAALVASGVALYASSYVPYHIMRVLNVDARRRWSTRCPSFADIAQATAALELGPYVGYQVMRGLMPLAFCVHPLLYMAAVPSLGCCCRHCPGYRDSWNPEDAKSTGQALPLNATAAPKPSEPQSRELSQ", "experiment": "Inositol trisphosphate (IP3) accumulation in 1321N1 astrocytoma cells transfected with the new receptor", "conditions": "for IP3 accumulation in response to nucleotide: 100 μM, pool of G418-resistant P2Y11-transfected 1321N1 clones; for Effect on IP3 accumulation in concentration-action curves: large range of concentrations, FIG. 4A; for Agonist efficacy compared with ATP: same for the phosphoinositide and cAMP pathways", "description": "(§1) The complete sequence of the new receptor according to the invention was subcloned between the Hind III and Nhe I sites of the bicistronic pEFIN3 expression vector. 1321N1 and CHO-K1 cells were transfected with the recombinant pEFIN3 plasmid or with the plasmid alone using the calcium phosphate precipitation method as described (19). The transfected cells were selected with 400 μg/ml G418 in complete medium (10% FCS, 100 units/ml penicillin, 100 μg/ml streptomycin and 2.5 μg/ml amphotericin B in Duibecco's modified Eagle's medium (DMEM)) two days after transfection and maintained in the same medium (10).\n1321N1 cells were labelled for 24 hours with […] [^3H] inositol in inositol free DMEM containing 5% FCS, antibiotics, amphotericin, sodium pyruvate and 400 μg/ml G418. Cells were washed twice with Krebs-Ringer Hepes (KRH) buffer of the following composition (124 mM NaCl, 5 mM KC1, 1.25 mM MgSO4, 1.45 mM CaCl2, 1.25 mM KH2PO4, 25 mM Hepes (pH:7.4) and 8 mM glucose) and incubated in the same medium for 30 min. The cells were then challenged by various nucleotides for 30 s. The incubation was stopped by the addition of an ice cold 3% perchioric acid solution. IP were extracted and separated on Dowex columns as previously described (20).\n(§2) The complete sequence of the new receptor was introduced in the pEFIN3 expression vector in order to transfect the 1321N1 astrocytoma cell line, used previously to characterize several P2Y subtypes (6, 10, 12). The pool of G418-resistant clones was tested for its functional response to several nucleotides."}, "P2Y11 receptor [2]": {"molecular_target": "T1, P2Y11 receptor", "experiment": "cAMP accumulation in CHO-K1 cells transfected with the new receptor", "conditions": "for cAMP content in response to nucleotide: 100 μM, pool of G418 resistant P2Y11-transfected CHO-K1 clones; for Inhibition of the cAMP response to ATP (30 μM): indomethacin 10 μg/ml from 30 min before, 8 (p-sulfophenyl) theophylline 100 μM", "description": "as §1\n(§3) Stably transfected CHO-K1 or 1321N1 cell lines were spread on Petri dishes (150.000 cells per dish) and cultured in Ham's F12 or DMEM medium containing 10% FCS, antibiotics, amphotericin, sodium pyruvate and 400 μg/ml G418. Cells were preincubated for 30 min in KRH buffer with Rolipram (25 μM) and incubated for different times in the presence of the agonists (15 min in most experiments). The incubation was stopped by the addition of 1 ml HC1 0.1 M. The incubation medium was dried up, resuspended in water and diluted as required. Cyclic AMP was quantified by radioimmunoassay after acetylation as previously described (21).\n(§4) A much lower but significant endogeneous response due to the degradation of adenine nucleotides into adenosine was also obtained in the 1321N1 cells transfected with the vector alone. […] We therefore used CHO-K1 cells in order to characterize the coupling of the new receptor to the cAMP pathway. A pool of G418 resistant CHO-K1 clones was first tested for its response to several nucleotides at a concentration of 100 μM. […] The rank order of potency was the same as in the inositol phosphate study on 1321N1 cells."}, "P2Y11 receptor [3]": {"molecular_target": "T1, P2Y11 receptor", "experiment": "[Ca2+]i measurements on 1321N1 transfected cells", "conditions": "10 μM", "description": "as §2, with “nucleotides. […] The effect of ADP and 2MeSADP were minimal.” for “nucleotides.”"}, "[4]": {"system": "CHO-K1 cells transfected with the vector alone", "experiment": "cAMP in CHO-K1 cells transfected with the vector alone or untransfected", "conditions": "100 μM", "description": "as §1\nas §3, with “(21). […]” for “(21).”"}, "P2Y11 receptor [5]": {"molecular_target": "T1, P2Y11 receptor", "experiment": "cAMP measurement in 1321N1 cells transfected with the new receptor", "description": "as §3, §4"}}}
{"molecule": "Nc1ncnc2c1ncn2[C@@H]1O[C@H](COP(=O)(O)OP(=O)(O)O)[C@@H](O)[C@H]1O", "note": "[ADP]", "values": [{"measurement": "IP3 accumulation in response to nucleotide", "setting": "P2Y11 receptor [1]; 30 s", "result": "inactive"}, {"measurement": "Effect on IP3 accumulation in concentration-action curves", "setting": "P2Y11 receptor [1]", "result": "minimal"}, {"measurement": "cAMP content in response to nucleotide", "setting": "P2Y11 receptor [2]", "result": "completely inactive"}, {"measurement": "[Ca2+]i response", "setting": "P2Y11 receptor [3]", "result": "inactive"}]}
{"molecule": "Pertussis toxin", "values": [{"measurement": "Effect on the ATP response (IP3)", "setting": "P2Y11 receptor [1]; pertussis toxin 50 ng/ml, 24 h pretreatment", "result": "no effect"}]}
{"molecule": "CSc1nc(N)c2ncn([C@@H]3O[C@H](COP(=O)(O)OP(=O)(O)OP(=O)(O)O)[C@@H](O)[C@H]3O)c2n1", "note": "[2MeSATP, 2-methylthio-ATP]", "values": [{"measurement": "EC50", "setting": "P2Y11 receptor [1]; P2Y11-transfected 1321N1 cells, 30 s, means±range of two independent experiments", "result": "118 ± 15", "unit": "µM"}, {"measurement": "Agonist efficacy compared with ATP", "setting": "P2Y11 receptor [1]", "result": "same maximal effect than ATP but presented a lower potency"}]}
{"molecule": "O=c1ccn([C@@H]2O[C@H](COP(=O)(O)OP(=O)(O)OP(=O)(O)O)[C@@H](O)[C@H]2O)c(=O)[nH]1", "note": "[UTP]", "values": [{"measurement": "IP3 accumulation in response to nucleotide", "setting": "P2Y11 receptor [1]; 30 s", "result": "inactive"}, {"measurement": "cAMP content in response to nucleotide", "setting": "P2Y11 receptor [2]", "result": "completely inactive"}]}
{"molecule": "COc1ccc2c(c1)c(CC(=O)O)c(C)n2C(=O)c1ccc(Cl)cc1", "note": "[indomethacin, Indomethacin]", "values": [{"measurement": "Inhibition of the cAMP response to ATP (30 μM)", "setting": "P2Y11 receptor [2]", "result": "inhibited neither"}]}
{"molecule": "Cn1c(=O)c2[nH]c(-c3ccc(S(=O)(=O)O)cc3)nc2n(C)c1=O", "note": "[8 (p-sulfophenyl) theophylline]", "values": [{"measurement": "Inhibition of the cAMP response to ATP (30 μM)", "setting": "P2Y11 receptor [2]", "result": "inhibited neither"}]}
{"molecule": "O=c1ccn([C@@H]2O[C@H](COP(=O)(O)OP(=O)(O)O)[C@@H](O)[C@H]2O)c(=O)[nH]1", "note": "[UDP]", "values": [{"measurement": "IP3 accumulation in response to nucleotide", "setting": "P2Y11 receptor [1]; 30 s", "result": "inactive"}, {"measurement": "cAMP content in response to nucleotide", "setting": "P2Y11 receptor [2]", "result": "completely inactive"}]}
{"molecule": "Nc1ncnc2c1ncn2[C@@H]1O[C@H](COP(=O)(O)O)[C@@H](O)[C@H]1O", "note": "[AMP]", "values": [{"measurement": "IP3 accumulation in response to nucleotide", "setting": "P2Y11 receptor [1]; 30 s", "result": "inactive"}, {"measurement": "cAMP content in response to nucleotide", "setting": "P2Y11 receptor [2]", "result": "completely inactive"}]}
{"molecule": "Nc1ncnc2c1ncn2[C@@H]1O[C@H](COP(=O)(O)OP(=O)(O)OP(=O)(O)OP(=O)(O)OC[C@H]2O[C@@H](n3cnc4c(N)ncnc43)[C@H](O)[C@@H]2O)[C@@H](O)[C@H]1O", "note": "[AP4A]", "values": [{"measurement": "IP3 accumulation in response to nucleotide", "setting": "P2Y11 receptor [1]; 30 s", "result": "inactive"}]}
{"molecule": "Nc1ncnc2c1ncn2[C@@H]1O[C@H](CO)[C@@H](O)[C@H]1O", "note": "[adenosine]", "values": [{"measurement": "IP3 accumulation in response to nucleotide", "setting": "P2Y11 receptor [1]; 30 s", "result": "inactive"}, {"measurement": "cAMP content in response to nucleotide", "setting": "P2Y11 receptor [2]", "result": "completely inactive"}]}
{"molecule": "CSc1nc(N)c2ncn([C@@H]3O[C@H](COP(=O)(O)OP(=O)(O)O)[C@@H](O)[C@H]3O)c2n1", "note": "[2MeSADP, 2-methylthio-ADP]", "values": [{"measurement": "Effect on IP3 accumulation in concentration-action curves", "setting": "P2Y11 receptor [1]", "result": "minimal"}, {"measurement": "Agonist efficacy compared with ATP", "setting": "P2Y11 receptor [1]", "result": "almost inactive"}]}
{"molecule": "Nc1ncnc2c1ncn2[C@@H]1O[C@H](COP(=O)(O)OP(=O)(O)OP(=O)(O)O)[C@@H](O)[C@H]1O", "note": "[ATP]", "values": [{"measurement": "IP3 accumulation in response to nucleotide", "setting": "P2Y11 receptor [1]; 30 s", "result": "strong inositol trisphosphate (IP3) accumulation"}, {"measurement": "cAMP content in response to nucleotide", "setting": "P2Y11 receptor [2]", "result": "strong increase in the cAMP content"}, {"measurement": "cAMP response after short stimulation", "setting": "P2Y11 receptor [2]; after 2 min of stimulation, CHO-K1", "result": "significant cAMP response"}, {"measurement": "cAMP content in vector-alone cells", "setting": "[4]", "result": "inactive"}, {"measurement": "[Ca2+]i response", "setting": "P2Y11 receptor [3]", "result": "response"}, {"measurement": "cAMP response", "setting": "P2Y11 receptor [5]", "result": "strong cAMP increase"}]}
{"molecule": "Nc1ncnc2c1ncn2[C@@H]1O[C@H](COP(=O)(O)OP(=O)(O)OP(=O)(O)OP(=O)(O)OP(=O)(O)OP(=O)(O)OC[C@H]2O[C@@H](n3cnc4c(N)ncnc43)[C@H](O)[C@@H]2O)[C@@H](O)[C@H]1O", "note": "[AP6A]", "values": [{"measurement": "IP3 accumulation in response to nucleotide", "setting": "P2Y11 receptor [1]; 30 s", "result": "inactive"}]}
